Source: patent US10494384B2, “Urea peptoid boric acid compound, pharmaceutical composition thereof, preparation method therefor, and uses thereof” (Peking University, priority 2015, dated 2019)

Columns and labels:
[1] = target: T1, 20S proteasome extracted from rat liver (PGPH) (Rattus norvegicus, UniProt P28073+Q9JHW0); experiment: inhibition of 20S proteasome, PGPH activity (fluorescent peptide); assay type: biochemical; settings: rat liver 20S proteasome, 37° C., 1 h, read-out: inhibition rates (%) PGPH
T1 construct: 20S proteasome extracted from rat liver; from tissue; host or cells: rat liver
Procedure: (§1) 1 μg of 20S proteasome extracted from rat liver was incubated with a 100 μL solution containing various concentrations of the present compounds, 50 μM fluorescent peptides and 20 mM Tris-HCl at 37° C. for 1 h, respectively. […] 0.1% DMSO was used as a solvent control. Compared with the fluorescence of solvent control, an inhibition rate or IC50 value was calculated.

[2] = target: T2, 20S proteasome extracted from rat liver (T-L) (Rattus norvegicus, UniProt P40112+Q9JHW0); experiment: inhibition of 20S proteasome, T-L activity (fluorescent peptide); assay type: biochemical; settings: rat liver 20S proteasome, 37° C., 1 h, read-out: inhibition rates (%) T-L
T2 construct: 20S proteasome extracted from rat liver; from tissue; host or cells: rat liver
Procedure: as §1

[3] = target: T3, 20S proteasome extracted from rat liver (CT-L) (Rattus norvegicus, UniProt P18421+P28075); experiment: inhibition of 20S proteasome, CT-L activity (fluorescent peptide); assay type: biochemical; settings: rat liver 20S proteasome, 37° C., 1 h, read-out: inhibition rates (%) CT-L
T3 construct: 20S proteasome extracted from rat liver; from tissue; host or cells: rat liver
Procedure: as §1

[4] = tested on: Hela, human cervical carcinoma; experiment: preliminary anti-tumor screening in vitro, MTT method; assay type: cell-based; settings: read-out: inhibition rates (%) Hela
Procedure: (§2) The test methods used in this test example are routine methods for anti-tumor activities test in pharmaceutical area, for example, referring to the following reference: (J. Immunol Method, 1983, 65, 55).
(§3) Test models: A: MTT method (Hela, human cervical carcinoma); B: SRB method (BGC-823, […]); C: SRB method (MCF-7, breast cancer); D: SRB method (A549, human lung cancer); E: SRB method (PC3M1E8, prostate cancer).
(§4) Inhibition rates of the compounds were measured under concentrations of 0.1 μM, 1 μM or 10 μM.

MCF-7, breast cancer = experiment: preliminary anti-tumor screening in vitro, SRB method; assay type: cell-based; settings: Homo sapiens, read-out: inhibition rates (%) MCF-7; for inhibition at 0.1 µM: MCF7, 0.1 μM; for inhibition at 1 µM: MCF7, 1 μM; for inhibition at 10 µM: MCF7, 10 μM
Procedure: as §2, §3, §4

BGC-823, liver cancer = experiment: as above; assay type: cell-based; settings: Homo sapiens, read-out: inhibition rates (%) BGC-823
Procedure: as §2, §3, §4

A549, human lung cancer = experiment: as above; assay type: cell-based; settings: read-out: inhibition rates (%) A549
Procedure: as §2, §3, §4

Compound	inhibition at 0.2 µM [1]	inhibition at 2 µM [1]	inhibition at 20 µM [1]	inhibition at 0.2 µM [2]	inhibition at 2 µM [2]	inhibition at 20 µM [2]	inhibition at 0.2 µM [3]	inhibition at 2 µM [3]	inhibition at 20 µM [3]	inhibition at 0.1 µM [4]	inhibition at 1 µM [4]	inhibition at 10 µM [4]	inhibition at 0.1 µM (MCF-7, breast cancer)	inhibition at 1 µM (MCF-7, breast cancer)	inhibition at 10 µM (MCF-7, breast cancer)	inhibition at 0.1 µM (BGC-823, liver cancer)	inhibition at 1 µM (BGC-823, liver cancer)	inhibition at 10 µM (BGC-823, liver cancer)	inhibition at 0.1 µM (A549, human lung cancer)	inhibition at 1 µM (A549, human lung cancer)	also measured
COc1ccc(NC(=O)[C@H](Cc2ccccc2)NC(=O)N[C@@H](CC(C)C)B(O)O)cc1 [Example 8, N-L-leucine borate-N′-(p-methoxy-phenylcarbamoyl)-L-phenylalanine-urea]	1.62%	7.36%	63.1%	-1.39%	9.32%	30.6%	2.87%	59.7%	89.4%	12.7%	13.4%	32.9%	4.54%	8.51%	16.4%	4.74%	5.62%	15.6%	1.01%	8.26%	inhibition at 10 µM (A549, human lung cancer): 39.2%
CC(C)C[C@H](NC(=O)N[C@@H](CC(C)C)C(=O)N[C@@H](CC(C)C)C(=O)Nc1cnccn1)B(O)O [Example 11, N-L-leucine borate-N′-(pyrazin-2-ylcarbamoyl)-L-leucyl-L-leucine-urea]	12.8%	32.6%	81%	-8.06%	-5.63%	25.2%	5.79%	52.8%	92.5%	2.45%	6.1%	19.2%	4.81%	7.23%	16.1%	6.32%	4.58%	13.1%	-4.49%	0.81%	inhibition at 10 µM (A549, human lung cancer): 26.6%
COc1ccc(CNC(=O)[C@H](Cc2ccccc2)NC(=O)N[C@@H](CC(C)C)B(O)O)cc1 [Example 1, N-L-leucine borate-N′-(p-methoxy-benzylcarbamoyl)-L-phenylalanine-urea]	40.9%	87.9%	96.6%	-6.55%	22.8%	35.5%	33.8%	86.8%	93.6%	8.67%	28%	38.5%	1%	7.46%	22.9%	7.79%	14.9%	32%	1.44%	35.3%	inhibition at 10 µM (A549, human lung cancer): 50.2%
CC(C)C[C@H](NC(=O)N[C@@H](Cc1ccccc1)C(=O)NCC1CCCO1)B(O)O (stereo partly drawn) [Example 3, N-L-leucine borate-N′-(tetrahydrofuran-2-ylmethylcarbamoyl)-L-phenylalanine-urea]	7.38%	40.8%	88.4%	16.9%	18.5%	35.9%	-20.8%	1.91%	68.6%	10.2%	14.2%	19.2%	3.24%	9.52%	9.37%	4.73%	-4.01%	0.96%	5.55%	16.6%	inhibition at 10 µM (A549, human lung cancer): 14.9%
CC(C)C[C@H](NC(=O)N[C@@H](Cc1ccccc1)C(=O)N[C@@H](CC(C)C)C(=O)Nc1cnccn1)B(O)O [Example 12, N-L-leucine borate-N′-(pyrazin-2-ylcarbamoyl)-L-leucyl-L-phenylalanine-urea]	9.76%	73.2%	96.7%	-7.93%	34.7%	67.8%	63.3%	93.4%	95.8%	12%	35%	46%	1.77%	26.3%	50.8%	6.01%	36.3%	50.2%	1.55%	45.5%	inhibition at 10 µM (A549, human lung cancer): 69.7%

More lines, main results first:

inhibition at 0.2 µM [1]	inhibition at 2 µM [1]	inhibition at 20 µM [1]	inhibition at 0.2 µM [2]	inhibition at 2 µM [2]	inhibition at 20 µM [2]	inhibition at 0.2 µM [3]	inhibition at 2 µM [3]	inhibition at 20 µM [3]	Compound	inhibition at 0.1 µM [4]	inhibition at 1 µM [4]	inhibition at 10 µM [4]	inhibition at 0.1 µM (MCF-7, breast cancer)	inhibition at 1 µM (MCF-7, breast cancer)	inhibition at 10 µM (MCF-7, breast cancer)	inhibition at 0.1 µM (BGC-823, liver cancer)	inhibition at 1 µM (BGC-823, liver cancer)	inhibition at 10 µM (BGC-823, liver cancer)	inhibition at 0.1 µM (A549, human lung cancer)	inhibition at 1 µM (A549, human lung cancer)	also measured
-13.7%	-20.5%	-20.3%	-0.748%	47.2%	90.5%	49.5%	91%	94.2%	CC(C)C[C@H](NC(=O)[C@H](Cc1ccccc1)NC(=O)[C@H](Cc1ccccc1)NC(=O)Nc1cccc(OCc2ccccc2)c1)B(O)O [Example 23, N-L-phenylalanyl-L-phenylalanyl-L-leucine borate-N′-(3-benzyloxy-phenylamine)-urea]	17.4%	42.5%	75.7%	23.7%	56%	73%	43.2%	42.7%	81.6%	32.7%	68.8%	inhibition at 10 µM (A549, human lung cancer): 81.3%
5.28%	53.4%	96.8%	-3.11%	13.8%	49.4%	45.4%	91.3%	95.4%	CC(C)C[C@H](NC(=O)N[C@@H](Cc1ccccc1)C(=O)N[C@@H](CC(C)C)C(=O)Nc1cnccn1)B1OC(C)(C)C(C)(C)O1 [Example 13, N-L-leucine borate pinacol ester-N′-(pyrazin-2-ylcarbamoyl)-L-leucyl-L-phenylalanine-urea]	7.02%	20.2%	37.7%	-3.69%	8.39%	20%	3.66%	17.8%	40%	-9.11%	23.5%	inhibition at 10 µM (A549, human lung cancer): 50.5%
10.1%	7.17%	5.29%	-3.95%	28.3%	53.1%	62%	89.7%	93.3%	CC(C)C[C@H](NC(=O)CNC(=O)Nc1cc(Cl)ccc1Cl)B(O)O [Example 22, N-glycyl-L-leucine borate-N′-(2,5-dichloro-phenylamine)-urea]	8.66%	19.7%	43.4%	7.17%	12.7%	42.2%	2.04%	9.01%	44.5%	1.88%	28.3%	inhibition at 10 µM (A549, human lung cancer): 65.6%
3.75%	8.57%	94.5%	-3.77%	10.5%	57.3%	10.5%	87.3%	95.8%	CC(C)C[C@H](NC(=O)[C@H](Cc1ccccc1)NC(=O)Nc1cnccn1)B(O)O [Example 17, N-L-phenylalanyl-L-leucine borate-N′-(pyrazin-2-ylamine)-urea]	12.1%	34.6%	51.5%	8.29%	26.2%	37.6%	7.89%	27.1%	52.7%	5.46%	40.9%	inhibition at 10 µM (A549, human lung cancer): 66%
